Assay results from patent US20250361273A1, “METHODS AND COMPOSITIONS” (priority 2024, published 2025).
Where a SMILES comes first, the peptide text is derived from it. Bridges are numbered along the chain shown (N, C = ends). [ ]: non-standard residue; d: D form. Trp(6-F) = N[C@@H](Cc1c[nH]c2cc(F)ccc12)C(=O)O; dPhe(4-F) = N[C@H](Cc1ccc(F)cc1)C(=O)O; dAgb = N=C(N)NCC[C@@H](N)C(=O)O; Ac4c(3-oxa) = NC1(C(=O)O)COC1; Pen = CC(C)(S)[C@H](N)C(=O)O

Columns and labels:
MC1R = MC1R (Homo sapiens, UniProt Q01726); assay: cAMP assay (human receptors), DiscoverX HitHunter, MC1R
Method: The cAMP Assay (Human Receptors)
The in vitro functional activity of peptides was determined via DiscoverX Hit Hunter® cAMP assays, adhering to manufacturer-specified protocols. Assays involved the use of HEK293 cells, each of which were engineered to express MC1R or MC4R receptors.
In accordance with standard procedures, cAMP Hunter cell lines, extracted from freezer stocks, were cultured in 20 μL volumes in white-walled, 384-well microplates. These cells were incubated at 37° C. for an appropriate duration before commencing testing procedures. The identification of cAMP modulation was determined using the DiscoverX HitHunter assay.
For gauging the response from agonists, cells were incubated with a specific peptide, after which the media was aspirated and replaced with a solution of 10 μL of HBSS/10 mM Hepes, known as Assay Buffer. A subsequent dilution of sample stocks yielded a 4× sample in the assay buffer, which was then added to the cells in equal quantities, followed by a 30-minute incubation at 37° C. The ensuing concentration of DMSO, the vehicle, was maintained at 1%. […]
Compound activity was evaluated using a Chemical and Biological Information System software (CBIS) data analysis suite. The results described were calculated on an average of the two points per concentration generated by the assay described above. […]

MC4R vs MC1R = assay: Selectivity calculation MC4R vs MC1R (division of cAMP EC50 values); format: cell-based, human
Method: Peptides, including comparator molecules were tested by assays listed below. Selectivity between receptors was assessed in part using cAMP assays, which test the activity of peptides through the Gs pathway.
Selectivity between any two receptors was calculated by a division of the EC50 values between the two receptors, for each individual peptide.

MC4R = molecular target: T1, MC4R (Homo sapiens, UniProt P32245); assay: Bias calculation MC4R B-arrestin v MC4R cAMP; format: cell-based
T1 construct: host or cells: HEK293 (cAMP Hunter and PathHunter MC4R cell lines)
T1 sequence (P32245 whole entry): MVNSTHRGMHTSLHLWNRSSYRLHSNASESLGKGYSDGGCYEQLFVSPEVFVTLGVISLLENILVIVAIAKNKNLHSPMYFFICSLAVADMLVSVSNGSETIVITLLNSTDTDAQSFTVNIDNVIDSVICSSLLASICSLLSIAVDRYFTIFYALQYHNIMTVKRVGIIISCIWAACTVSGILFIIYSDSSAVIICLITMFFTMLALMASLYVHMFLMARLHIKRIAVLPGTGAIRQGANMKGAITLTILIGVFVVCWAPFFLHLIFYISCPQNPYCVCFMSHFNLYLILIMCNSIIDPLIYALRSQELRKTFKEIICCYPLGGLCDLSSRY
From the text: When comparing the selectivity of MC4R v MC1R, larger values indicate selectivity towards MC4R. When comparing the bias of MC4R B-arrestin v MC4R cAMP, larger values indicate bias towards B-arrestin.

Chain of MC1R (Q01726 whole entry): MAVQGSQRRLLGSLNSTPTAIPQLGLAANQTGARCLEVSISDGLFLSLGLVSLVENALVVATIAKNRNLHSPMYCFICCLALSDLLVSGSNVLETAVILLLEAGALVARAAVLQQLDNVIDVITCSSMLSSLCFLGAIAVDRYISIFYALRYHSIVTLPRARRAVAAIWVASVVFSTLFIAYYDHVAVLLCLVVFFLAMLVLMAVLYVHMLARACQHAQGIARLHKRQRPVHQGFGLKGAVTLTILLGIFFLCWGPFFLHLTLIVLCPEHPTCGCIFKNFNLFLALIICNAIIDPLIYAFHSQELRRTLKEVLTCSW

| SMILES | EC50 (MC1R) [nM] | Selectivity: MC4R v MC1R (MC4R vs MC1R; Compounds with Gln at X4, larger values indicate selectivity towards MC4R) | Selectivity: MC4R v MC1R (MC4R vs MC1R; Table 6 (A), larger values indicate selectivity towards MC4R) | Selectivity: MC4R v MC1R (MC4R vs MC1R; Table 6 (B), larger values indicate selectivity towards MC4R) | Selectivity: MC4R v MC1R (MC4R vs MC1R; Table 7, Aib(O-cyclic) at X3, larger values indicate selectivity towards MC4R) | Selectivity: MC4R v MC1R (MC4R vs MC1R; Table 14, Aib(O-cyclic) at X3, larger values indicate selectivity towards MC4R) | Selectivity: MC4R v MC1R (MC4R vs MC1R; Table 20, Gln at X4) | Selectivity: MC4R v MC1R (MC4R vs MC1R; calculated from cAMP functional screening, larger values indicate selectivity towards MC4R) | Bias: MC4R B-arrestin v MC4R cAMP (MC4R; Compounds with Gln at X4, larger values indicate bias towards B-arrestin) | Bias: MC4R B-arrestin v MC4R cAMP (MC4R; Table 6 (B), larger values indicate bias towards B-arrestin) | Bias: MC4R B-arrestin v MC4R cAMP (MC4R; Table 7, Aib(O-cyclic) at X3, larger values indicate bias towards B-arrestin) | Bias: MC4R B-arrestin v MC4R cAMP (MC4R; Table 20, Gln at X4) |
| --- | --- | --- | --- | --- | --- | --- | --- | --- | --- | --- | --- | --- |
| CCCC[C@H](NC(C)=O)C(=O)N[C@H]1CC(=O)NCCCC[C@@H](C(=O)O)NC(=O)[C@H](Cc2c[nH]c3ccccc23)NC(=O)[C@H](CCCN=C(N)N)NC(=O)[C@@H](Cc2ccccc2)NC(=O)[C@H](Cc2cnc[nH]2)NC1=O [Bremelanotide] | 0.17 | – | – | – | – | – | – | – | – | – | – | – |
| CC(=O)N[C@H](CCNC(=N)N)C(=O)N[C@H]1CSSC(C)(C)[C@@H](C(N)=O)NC(=O)[C@H](Cc2c[nH]c3cc(F)ccc23)NC(=O)[C@H](CCCNC(=N)N)NC(=O)[C@@H](Cc2ccc(F)cc2)NC(=O)[C@H](CCC(N)=O)NC(=O)C2(COC2)NC1=O [Molecule 1158, (7R,12R,15S,18S,21R,24S)-7-((R)-2-acetamido-4-guanidinobutanamido)-24-(3-amino-3-oxopropyl)-15-((6-fluoro-1H-indol-3-yl)methyl)-21-(4-fluorobenzyl)-18-(3-guanidinopropyl)-11,11-dimethyl-6,14,17,20,23,26-hexaoxo-2-oxa-9,10-dithia-5,13,16,19,22,25-hexaazaspiro[3.22]hexacosane-12-carboxamide] (Ac-[dAgb]C[Ac4c(3-oxa)]Q[dPhe(4-F)]R[Trp(6-F)][Pen]-NH2; disulfide 2-8) | – | *** (*** denotes MC4R vs MC1R selectivity of about >7.40) | *** (*** denotes MC4R vs MC1R selectivity of about >7.40) | *** (*** denotes MC4R vs MC1R selectivity of about >7.40) | *** (*** denotes MC4R vs MC1R selectivity of about >7.40) | *** (*** denotes MC4R vs MC1R selectivity of about >7.40) | *** (*** denotes MC4R vs MC1R selectivity of about >7.40) | *** (*** denotes MC4R vs MC1R selectivity of about >7.40) | + (+ denotes MC4R B-arrestin v MC4R cAMP bias having a range of >0.00 to ≤2.00) | + (+ denotes MC4R B-arrestin v MC4R cAMP bias having a range of >0.00 to ≤2.00) | + (+ denotes MC4R B-arrestin v MC4R cAMP bias having a range of >0.00 to ≤2.00) | + (+ denotes MC4R B-arrestin v MC4R cAMP bias having a range of >0.00 to ≤2.00) |
